This data set can be described thus: Solubility in TFP. Type of data set: physicochemical. The settings on record: solvent TFP (2,2,3,3-tetrafluoro-1-propanol).

Regarding `CN1/C(=C/C=C/C2=[N+](C)c3ccc4ccccc4c3C2(C)Cc2ccc(Oc3ccc(CC4(C)C(/C=C/C=C5/N(C)c6ccc7ccccc7c6C5(C)Cc5ccccc5)=[N+](C)c5ccc6ccccc6c54)cc3)cc2)C(C)(Cc2ccccc2)c2c1ccc1ccccc21` (centres unmarked) [Compound No. 1], the “Solubility (in TFP)” value is recorded as 4.8%. Under `CCN1/C(=C/C=C/C2=[N+](C)c3ccc4ccccc4c3C2(C)Cc2ccc(Cc3ccc(CC4(C)C(/C=C/C=C5/N(CC)c6ccc7ccccc7c6C5(C)Cc5ccccc5)=[N+](C)c5ccc6ccccc6c54)cc3)cc2)C(C)(Cc2ccccc2)c2c1ccc1ccccc21` (centres unmarked) [Compound No. 13] stands 3.6%; under `CN1/C(=C/C=C/C2=[N+](C)c3ccc4ccccc4c3C2(C)CC=CCC2(C)C(/C=C/C=C3/N(C)c4ccc5ccccc5c4C3(C)Cc3ccccc3)=[N+](C)c3ccc4ccccc4c32)C(C)(Cc2ccccc2)c2c1ccc1ccccc21` (centres unmarked) [Compound No. 26], 5.3%. Take `CN1/C(=C/C=C/C2=[N+](Cc3ccccc3)c3ccc4ccccc4c3C2(C)CC=CCC2(C)C(/C=C/C=C3/N(C)c4ccc5ccccc5c4C3(C)Cc3ccccc3)=[N+](Cc3ccccc3)c3ccc4ccccc4c32)C(C)(Cc2ccccc2)c2c1ccc1ccccc21` (centres unmarked) [Compound No. 29]: the “Solubility (in TFP)” value came to 5.3%.

For `CCCN1/C(=C/C=C/C2=[N+](CCC(C)C)c3ccc4ccccc4c3C2(C)CC=CCC2(C)C(/C=C/C=C3/N(CCC)c4ccccc4C3(C)C)=[N+](CCC(C)C)c3ccc4ccccc4c32)C(C)(C)c2ccccc21` (centres unmarked) [Compound No. 34], the “Solubility (in TFP)” value came out at 4.17%.

For the origin of these results see patent US8759534B2, “Trimethine cyanine and its use” (Orgchem Technologies, Inc., priority 2011, dated 2014).
